According to publication PMC5828360, “Identification and characterization of highly versatile peptide-vectors that bind non-competitively to the low-density lipoprotein receptor for in vivo targeting and delivery of small molecules and protein cargos” (PLoS ONE, 2018):
Where a SMILES comes first, the peptide text is derived from it. The star is where a group is joined. Propionyl = CCC(=O)*

How the values were obtained:
hTfR = target: T1, hTfR (Homo sapiens, UniProt P02786); experiment: Image J quantification of co-localization with hTfR-GFP (control); type: cell-based; conditions: CHO-hTfR-GFP, 10 μM
T1 construct: Full length coding regions for hLDLR, mLDLR, rLDLR and hTfR were amplified by RT-PCR; expressed in transfected cells
T1 sequence (P02786 whole entry): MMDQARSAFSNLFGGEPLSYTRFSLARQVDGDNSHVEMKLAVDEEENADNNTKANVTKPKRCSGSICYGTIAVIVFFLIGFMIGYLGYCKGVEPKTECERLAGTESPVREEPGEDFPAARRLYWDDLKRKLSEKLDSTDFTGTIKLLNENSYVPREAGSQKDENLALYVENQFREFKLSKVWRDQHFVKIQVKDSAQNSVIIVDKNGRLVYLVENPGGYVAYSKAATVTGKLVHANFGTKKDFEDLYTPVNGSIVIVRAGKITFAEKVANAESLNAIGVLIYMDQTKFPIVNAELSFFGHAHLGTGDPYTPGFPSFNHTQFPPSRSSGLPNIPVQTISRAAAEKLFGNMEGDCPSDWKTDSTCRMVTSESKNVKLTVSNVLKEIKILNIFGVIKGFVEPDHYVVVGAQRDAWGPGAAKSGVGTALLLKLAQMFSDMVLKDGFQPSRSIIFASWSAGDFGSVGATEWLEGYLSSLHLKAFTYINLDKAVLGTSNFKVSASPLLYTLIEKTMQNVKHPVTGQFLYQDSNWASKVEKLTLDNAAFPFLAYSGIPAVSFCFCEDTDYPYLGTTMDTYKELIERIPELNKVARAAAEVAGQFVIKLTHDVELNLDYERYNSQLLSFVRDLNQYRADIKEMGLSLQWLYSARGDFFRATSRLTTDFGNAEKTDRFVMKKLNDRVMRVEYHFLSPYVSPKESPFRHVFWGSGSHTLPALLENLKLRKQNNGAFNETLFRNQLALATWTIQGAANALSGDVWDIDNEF

hLDLR = target: T2, hLDLR (Homo sapiens, UniProt P01130); experiment: Image J quantification of co-localization with hLDLR-GFP; type: cell-based; conditions: CHO-hLDLR-GFP, 10 μM, n = 3
T2 construct: Full length coding regions for hLDLR, mLDLR, rLDLR and hTfR were amplified by RT-PCR; expressed in transfected cells
T2 sequence (P01130 22-860): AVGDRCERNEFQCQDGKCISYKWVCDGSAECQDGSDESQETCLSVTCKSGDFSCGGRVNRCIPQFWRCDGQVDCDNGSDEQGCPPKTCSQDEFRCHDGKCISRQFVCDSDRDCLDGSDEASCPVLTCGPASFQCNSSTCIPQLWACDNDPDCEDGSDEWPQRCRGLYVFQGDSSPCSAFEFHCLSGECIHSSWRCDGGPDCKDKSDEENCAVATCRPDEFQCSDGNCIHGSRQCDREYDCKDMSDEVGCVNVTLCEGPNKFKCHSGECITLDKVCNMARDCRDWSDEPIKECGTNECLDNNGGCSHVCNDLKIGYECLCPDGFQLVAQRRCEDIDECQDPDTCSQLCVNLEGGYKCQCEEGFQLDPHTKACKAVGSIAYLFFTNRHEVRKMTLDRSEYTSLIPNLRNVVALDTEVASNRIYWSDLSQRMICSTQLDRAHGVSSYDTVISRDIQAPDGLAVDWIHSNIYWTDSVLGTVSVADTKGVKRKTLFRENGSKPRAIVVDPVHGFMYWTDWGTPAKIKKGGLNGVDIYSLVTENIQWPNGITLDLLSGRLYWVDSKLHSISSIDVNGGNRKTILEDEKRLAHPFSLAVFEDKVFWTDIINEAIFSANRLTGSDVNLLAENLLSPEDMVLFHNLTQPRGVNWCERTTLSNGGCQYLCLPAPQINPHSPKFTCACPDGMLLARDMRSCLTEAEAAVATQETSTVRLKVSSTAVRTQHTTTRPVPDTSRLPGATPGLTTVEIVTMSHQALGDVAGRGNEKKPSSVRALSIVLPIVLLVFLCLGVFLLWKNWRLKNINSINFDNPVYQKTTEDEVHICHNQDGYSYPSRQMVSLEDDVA

mLDLR = target: T3, mLDLR (Mus musculus, UniProt P35951); conditions: in vivo, iv, 0.5 mg/kg
T3 construct: cells expressing LDLR in the zona fasciculata of WT mice; from tissue; host or cells: adrenal gland of C57Bl/6J mice (WT; ldlr-/- as control)
T3 sequence (P35951 22-862): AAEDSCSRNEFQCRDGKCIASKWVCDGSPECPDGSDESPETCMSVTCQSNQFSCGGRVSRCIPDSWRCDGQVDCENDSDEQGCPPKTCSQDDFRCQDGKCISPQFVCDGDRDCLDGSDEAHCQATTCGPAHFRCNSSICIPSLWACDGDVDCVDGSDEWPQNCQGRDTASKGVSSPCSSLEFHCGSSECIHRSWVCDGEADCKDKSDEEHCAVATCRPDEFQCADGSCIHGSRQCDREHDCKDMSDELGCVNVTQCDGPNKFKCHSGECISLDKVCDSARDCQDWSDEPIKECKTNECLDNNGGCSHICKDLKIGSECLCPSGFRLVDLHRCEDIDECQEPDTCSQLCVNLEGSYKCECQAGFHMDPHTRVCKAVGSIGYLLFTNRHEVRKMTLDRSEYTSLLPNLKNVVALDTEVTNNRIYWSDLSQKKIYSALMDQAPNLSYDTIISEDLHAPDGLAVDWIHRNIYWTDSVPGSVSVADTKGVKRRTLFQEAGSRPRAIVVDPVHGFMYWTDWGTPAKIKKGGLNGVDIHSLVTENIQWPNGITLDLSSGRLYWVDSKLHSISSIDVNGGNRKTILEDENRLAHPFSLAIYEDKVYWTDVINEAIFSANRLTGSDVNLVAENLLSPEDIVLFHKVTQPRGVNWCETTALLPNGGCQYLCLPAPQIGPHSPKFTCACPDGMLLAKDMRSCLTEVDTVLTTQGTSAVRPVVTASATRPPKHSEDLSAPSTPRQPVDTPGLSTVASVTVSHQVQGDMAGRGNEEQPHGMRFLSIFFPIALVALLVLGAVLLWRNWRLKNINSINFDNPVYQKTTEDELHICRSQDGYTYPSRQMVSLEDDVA
Protocol: For immunohistochemistry, transcardiac NaCl 0.9% perfusion was followed by 50 mL of PBS 1X- 4% paraformaldehyde (PFA). Mice organs were then removed and snap frozen in cold isopentane. Cryostat (Leica CM-3050-S) sections (14 μm thick) were stored at −80°C. Organ sections were first permeabilized and blocked for 1 hr at room temperature using a solution of PBS 1X, 0.1% Triton X-100 and 3% Bovine Serum Albumin (BSA). Sections were then incubated overnight at 4°C with anti-Fc-A594 (goat, 1/200, Jackson ImmunoResearch) and anti-mLDLR (goat 1/200, R&D Systems), followed by anti-goat-Alexa 488 (donkey, 1/800, Life Technologies) for 1 hr at room temperature. Nuclei were stained with Hoechst (0.5 μg/mL, Life Technologies). Omission of the primary antibody was used as control and no immunostaining was observed. Sections were mounted using Prolong Gold Antifading reagent (Life Technologies) on Superfrost glass slides. Images were taken and processed using a confocal microscope (LSM 700) and Zen software (Zeiss, Jena, Germany).

percentage of hLDLR that co-localized with the S-Tag peptide (hLDLR)	Compound	also measured
–	CCC(=O)N[C@@H]1CSSC(C)(C)[C@@H](C(=O)NCC(=O)NCC(=O)NCC(=O)N[C@@H](CCCCN)C(=O)N[C@@H](CCC(=O)O)C(=O)N[C@H](C(=O)N[C@@H](C)C(=O)N[C@@H](C)C(=O)N[C@@H](C)C(=O)N[C@@H](CCCCN)C(=O)N[C@@H](Cc2ccccc2)C(=O)N[C@@H](CCC(=O)O)C(=O)N[C@@H](CCCNC(=N)N)C(=O)N[C@@H](CCC(N)=O)C(=O)N[C@@H](Cc2c[nH]cn2)C(=O)N[C@@H](CCSC)C(=O)N[C@@H](CC(=O)O)C(=O)N[C@@H](CO)C(N)=O)[C@@H](C)O)NC(=O)CNC(=O)[C@H](CCCNC(=N)N)NC(=O)[C@H](CC(C)C)NC(=O)[C@H](CCCNC(=N)N)NC(=O)[C@@H]2CSCN2C(=O)[C@H](CCSC)NC1=O	co-localization with hTfR (hTfR): No co-localization
under 10%	CCC(=O)N[C@@H](CC(C)C)C(=O)N[C@@H](CCCNC(=N)N)C(=O)N[C@@H](CCCCN)C(=O)N[C@@H](CC(C)C)C(=O)N[C@@H](CCCNC(=N)N)C(=O)N[C@@H](CCCCN)C(=O)N[C@@H](CCCNC(=N)N)C(=O)N[C@@H](CC(C)C)C(=O)N[C@@H](CC(C)C)C(=O)N[C@@H](CC(C)C)C(=O)N[C@@H](CCCNC(=N)N)C(=O)N[C@@H](CCCCN)C(=O)N[C@@H](CC(C)C)C(=O)N[C@@H](CCCNC(=N)N)C(=O)N[C@@H](CCCCN)C(=O)N[C@@H](CCCNC(=N)N)C(=O)N[C@@H](CC(C)C)C(=O)N[C@@H](CC(C)C)C(=O)NCC(=O)NCC(=O)NCC(=O)N[C@@H](CCCCN)C(=O)N[C@@H](CCC(=O)O)C(=O)N[C@H](C(=O)N[C@@H](C)C(=O)N[C@@H](C)C(=O)N[C@@H](C)C(=O)N[C@@H](CCCCN)C(=O)N[C@@H](Cc1ccccc1)C(=O)N[C@@H](CCC(=O)O)C(=O)N[C@@H](CCCNC(=N)N)C(=O)N[C@@H](CCC(N)=O)C(=O)N[C@@H](Cc1c[nH]cn1)C(=O)N[C@@H](CCSC)C(=O)N[C@@H](CC(=O)O)C(=O)N[C@@H](CO)C(N)=O)[C@@H](C)O [ApoE2-S-Tag] (Propionyl-LRKLRKRLLLRKLRKRLLGGGKETAAAKFERQHMDS-NH2)	–
under 10%	Propionyl-SVIDALQYKLEGTTRLTRKRGLKLATALSLSNKFVEGSGGGKETAAAKFERQHMDS-NH2 [ApoB-S-Tag]	–
–	hIgG1Fc-SMCC- (Pr- cRPLGRMC-G-(CH2)2-S)2 (disulfide) [(VH4Sc)2-Fc, human IgG1-Fc chemically conjugated to scrambled VH4Sc peptide via sulfo-SMCC]	Fc labeling in adrenal gland zona fasciculata (mLDLR): no Fc labeling
